Entries after “also recorded” stand apart in the source; their conditions may differ.
Key:
[1] = test system: U87-MG glioma cells; assay: Matrigel invasion assay, U87-MG co-cultured with BV2 microglia; type: cell-based, human
Procedure: BV2 cells were plated onto a 24-well plate at the density of 4×10^4. After 24 h, the invasion assay was performed with tissue culture inserts (6.5 mm Transwell® with 8.0 µm Pore Polycarbonate Membrane Insert, Corning, NY, USA) coated with the Growth Factor Reduced Matrigel™ Matrix (BD Biosciences, San Diego. CA, USA). The Matrigel™ Matrix (50 µL of 1 mg/mL stock solution diluted in fresh DMEM) was dried under sterile conditions (37°C) for 5–6 h. The medium in BV2 cultures was replaced with fresh one 1 h before seeding glioblastoma cells onto the inserts, then LN18 and U87 glioblastoma cells were seeded at 2×10^4/insert on Matrigel-covered membranes in a serum-reduced medium (2% FBS). Untreated glioblastoma cells co-cultured with or without BV2 cells served as positive and negative controls, respectively. Cells were treated with the arginase-1 inhibitors OAT-90, OAT-1617 and OAT-1746 solved in PBS. The cultures were kept in incubator at 37°C with humidified air containing 5% CO2. After 18 h cells were fixed in ice-cold methanol and cell nuclei stained with DAPI (4′,6-Diamidino-2-Phenylindole; 1 µg/mL, Sigma). The membranes from Transwell® inserts were cut out and images were acquired using a fluorescence microscope (Leica DM4000B, 10x lens) from the 5 independent fields (bottom; top; left; right side and the middle). Numbers of invading cells were counted using the ImageJ software (NIH, Bethesda, MD, USA). All experiments were performed three times, in duplicates.

[2] = test system: human and murine T cells; set-up: method as in PMID 31278254; settings: cited from earlier work

## CN(C)C[C@@H]1CC[C@@H](CCB(O)O)C[C@]1(N)C(=O)O [OAT-1746]
[1]; 11 µM, co-culture with BV2, 18 h
  microglia-induced invasion of U87-MG cells: effectively reduced glioma invasion; also recorded: reduced microglia-induced invasion of glioma cells more efficiently
[1]; 0.1 and 11 µM, U87-MG with BV2
  concentration dependence of the inhibitory effect on glioma invasion: concentration-dependent
[2]
  ARG1-inhibited proliferation of human and murine T cells: reversed

Reference: PMC8422859, “A Novel Oral Arginase 1/2 Inhibitor Enhances the Antitumor Effect of PD-1 Inhibition in Murine Experimental Gliomas by Altering the Immunosuppressive Environment” (Frontiers in Oncology, 2021)
